As usually defined, the IC50 is the concentration that inhibits the measured activity by half.

Data set [1] in a line: Plasma protein binding (PPB), RED plate dialysis, mouse plasma. The following applies: 37° C., read-out: PPB (% free state) M. The class given is in vitro ADME. The protocol:
(§1) Human (H), Rat (R) and Mouse (M) Plasma Protein Binding (PPB)
(§2) A test compound and a positive control were each mixed with blank plasma to a final concentration of 1 μM. The mixture was added to a RED plate plasma sample chamber, followed by addition of a dialysis buffer in the buffer chamber. The sample was prepared in triplicate for each compound. The chambers were sealed, and the plate was incubated at 37° C. with shaking at 60 rpm for 5 h. After incubation, the samples were transferred out of the plasma chamber and the buffer chamber and treated as shown in Table 5. After centrifugation at 5594 g for 15 min, the supernatant was collected and analyzed by LC/MS/MS.
(§3) The compound concentration in each sample was expressed in terms of the ratio between peak areas (ratio of peak area of compound to peak area of internal standard) by mass spectrometry analysis, and the plasma protein binding was calculated according to the following formulas.
(§4) % free state=(buffer chamber peak area ratio/plasma chamber peak area ratio)×100%
(§5) % bound state=100%−% free state

The subject of data set [2] is ERK phosphorylation in H358 cells. The data set can be described thus: In-cell western blot assay for ERK phosphorylation in H358 cells. The class given is cell-based. To be noted: Homo sapiens, NCI-H358, 10000 nM to 0.051 nM, 3-fold dilution, read-out: H358 p-ERK IC50. The protocol:
In-Cell Western Blot Assay for ERK Phosphorylation in H358 Cells
H358 cells were thawed and pre-cultured for 3 days to be in a good state (RPMI 1640+10% FBS+1% P/S). The cells were plated on to a 384-well plate, and a test compound, positive control compounds (AMG510 and isomers thereof) and a negative control were added. The compound was at concentrations from 10000 nM to 0.051 nM. 3-fold dilution was performed. The mixture was well mixed and incubated at 37° C. and 5% CO2. The cells were washed with PBS and suspended in methanol. After another washing with PBS, a blocking buffer was added. After 1 h of blocking at room temperature, a primary antibody mixture (rabbit anti pERK, mouse anti GAPDH) was added, followed by overnight incubation at 4° C. The cells were washed 3 times with PBST, and a secondary antibody mixture (goat anti rabbit 800CW and goat anti mouse 680RD) was added, followed by incubation at room temperature in the dark. The 384-well plate was reversed and centrifuged at 1000 rpm for 1 min, and read on an Odyssey CLx fluorescence imaging system for fluorescence signal values, which was corrected using DMSO and ARS1620. The specific calculation is as follows:
Relative Signal=Signal Value(total channel 800)/Signal Value(total channel 700)
Relative pERK=(Sample−Ave_L)/(Ave_H−Ave_L).
The IC50 values of the compounds were calculated using a four-parameter fitting algorithm, specifically as follows:
Y=Bottom+(Top−Bottom)/(1+10^((Log IC50−X)×HillSlope))

Data set [3] in a line: Plasma protein binding (PPB), RED plate dialysis, human plasma. The class given is in vitro ADME. To be noted: 1 μM, 37° C., 5 h, read-out: PPB (% free state) H. The protocol: as §1, §2, §3, §4, §5
The nature of data set [4]: Plasma protein binding (PPB), RED plate dialysis, rat plasma. The class given is in vitro ADME. The following applies: 37° C., read-out: PPB (% free state) R. Here is the method:
as §1, §2, §3, §4, §5

Data set [5] concerns the target KRAS G12C protein (GDP-KRAS-4B-G12C) (Homo sapiens, UniProt P01116, G12C). The data set can be described thus: Assay for binding rate to KRAS G12C protein by LC-MS method. The following applies: 3 uM compound; for Binding rate to KRAS G12C protein (LC-MS POC, %) 3 uM/5 min: 5 min incubation at room temperature; for Binding rate to KRAS G12C protein (LC-MS POC, %) 3 uM/30 min: 30 min incubation at room temperature. The protocol: Assay for Binding Rate to KRAS G12C Protein by LC-MS Method
A 10 mM stock solution of a test compound in DMSO was prepared. […] An equal volume of GDP buffer (20 mM Hepes, pH 7.5, 50 mM NaCl, 0.5 mM MgCl2, 10 mM EDTA, 2 mM DTT, GDP) was added to prepare KRASG12C protein loaded with GDP.
After incubation at room temperature for 5 min and 30 min, the reaction was terminated by addition of 5 μL of 5% formic acid. After being centrifuged at 15,000 rpm for 10 min, the mixture was subjected to LC-MS analysis and data analysis.
The percent binding of a test compound to KRASG12C protein was calculated as: Percent binding to KRAS G12C (%)=peak height of conjugate of test compound and KRAS G12C protein/[peak height of conjugate of test compound and KRAS G12C protein+peak height of free KRAS G12C protein] x 100.

A further data set concerns plasma proteins. Put plainly: Plasma protein binding (PPB), RED plate dialysis, human plasma. The class given is in vitro ADME. The protocol:
as §1, §2, §3, §4, §5

With `C=CC(=O)N1CCN(c2nc(=O)n(-c3c(C)ccnc3C(C)C)c3nc(-c4c(O)cccc4F)c(F)cc23)[C@@H](C)C1` [SZ-014004A, reference compound], the results for the fraction unbound at 5 h, 1 μM in data set [1], in data set [3] and in data set [4] were 0.112, 0.068 and 0.145, respectively. For the same molecule, in data set [2], the IC50 is 0.012 µM.

As for `C=CC(=O)N1CCN(c2nc(=O)n(-c3c(C)ccnc3C(C)C)c3c2cc(F)c(-c2ccccc2O)[n+]3[O-])[C@@H](C)C1` [SZ-014010A/B], the half-inhibitory concentration (IC50) in data set [2] amounted to 0.442 µM. Further, in data set [5], the “Binding rate to KRAS G12C protein (LC-MS POC, %) 3 uM/5 min” value (from here on “Binding rate … (LC-MS POC, %) 3 uM/5 min”) was 47.7% and the “Binding rate to KRAS G12C protein (LC-MS POC, %) 3 uM/30 min” value (shortened to “Binding rate … (LC-MS POC, %) 3 uM/30 min”) was found to be 84.9%.

As for `C=CC(=O)N1CCN(c2nc(=O)n(-c3c(C)ccnc3C(C)C)c3c2cc(F)c(-c2ccccc2F)[n+]3[O-])[C@@H](C)C1` [SZ-014011A/B], in data set [2], the IC50 was 0.405 µM. In data set [5], the “Binding rate … (LC-MS POC, %) 3 uM/5 min” value is recorded as 37.8% and the “Binding rate … (LC-MS POC, %) 3 uM/30 min” value was found to be 75.5%.

For the molecule `C=CC(=O)N1CCN(c2nc(=O)n(-c3c(C(C)C)ncnc3C(C)C)c3c2cc(F)c(-c2cccc4ccccc24)[n+]3[O-])[C@@H](C)C1` [SZ-014013A/B], the concentration for half-maximal inhibition (IC50) in data set [2] worked out at 0.036 µM.

For `C=CC(=O)N1CCN(c2nc(=O)n(-c3c(C(C)C)ncnc3C(C)C)c3c2cc(Cl)c(-c2ccccc2O)[n+]3[O-])[C@@H](C)C1` [SZ-014031A], in data set [2], the IC50 was 0.0114 µM.

Regarding `C=CC(=O)N1CCN(c2nc(=O)n(-c3c(C(C)C)ncnc3C(C)C)c3c2cc(F)c(-c2cccc(F)c2O)[n+]3[O-])[C@@H](C)C1` [SZ-014043], the IC50 in data set [2] stood at 0.494 µM. In addition, in data set [5], the “Binding rate … (LC-MS POC, %) 3 uM/5 min” value was determined as 58.5% and the “Binding rate … (LC-MS POC, %) 3 uM/30 min” value turned out to be 90.0%.

As to `C=CC(=O)N1CCN(c2nc(=O)n(-c3c(C(C)C)ncnc3C(C)C)c3c2cc(F)c(-c2cc(F)ccc2O)[n+]3[O-])[C@@H](C)C1` [SZ-014044], the concentration for half-maximal inhibition (IC50) in data set [2] is 0.145 µM. Besides, in data set [5], the “Binding rate … (LC-MS POC, %) 3 uM/5 min” value came out at 84.1% and the “Binding rate … (LC-MS POC, %) 3 uM/30 min” value came to 97.2%.

Regarding `[2H]c1c([2H])c([2H])c(-c2c(F)cc3c(N4CCN(C(=O)C=C)C[C@@H]4C)nc(=O)n(-c4c(C(C)C)ncnc4C(C)C)c3[n+]2[O-])c(O)c1[2H]` [SZ-014051A/B], in data set [2], the IC50 was determined as 0.044 µM.

On to `C=CC(=O)N1CCN(c2nc(=O)n(-c3c(C(C)C)ncnc3C(C)C)c3c2cc(F)c(-c2c(F)ccc(F)c2O)[n+]3[O-])[C@@H](C)C1` [SZ-014062AB], for which the 50% inhibitory concentration (IC50) in data set [2] is 0.207 µM.

`C=CC(=O)N1CCN(c2nc(=O)n(-c3c(C)ccnc3C(C)C)c3c2cc(F)c(-c2c(F)cccc2F)[n+]3[O-])[C@@H](C)C1` [SZ-014077A/B]: the IC50 in data set [2] was found to be 0.191 µM.

Regarding `C=CC(=O)N1CCN(c2nc(=O)n(-c3c(C(C)C)ncnc3C(C)C)c3c2cc(F)c(-c2c(F)cccc2Cl)[n+]3[O-])[C@@H](C)C1` [SZ-014082A/B], the 50% inhibitory concentration (IC50) in data set [2] is 0.06 µM.

As to `C=CC(=O)N1CCN(c2nc(=O)n(-c3c(C)ccnc3C(C)C)c3c2cc(F)c(-c2c(O)cccc2F)[n+]3[O-])[C@@H](C)C1` [SZ-014089A/B], in data set [2], the half-inhibitory concentration (IC50) was 0.143 µM.

With `C=CC(=O)N1CCN(c2nc(=O)n(-c3c(C(C)C)ncnc3C(C)C)c3c2cc(Cl)c(-c2ccccc2F)[n+]3[O-])[C@@H](C)C1` [SZ-014108A/B], the IC50 in data set [2] is 0.0094 µM.

For the molecule `C=CC(=O)N1CCN(c2nc(=O)n(-c3c(C(C)C)ncnc3C(C)C)c3c2cc(F)c(-c2ccccc2O)[n+]3[O-])[C@@H](C)C1` [SZ-014111A/B], in data set [2], the 50% inhibitory concentration (IC50) is 0.031 µM.

Regarding `C=CC(=O)N1CCN(c2nc(=O)n(-c3c(C(C)C)cccc3C(C)C)c3c2cc(Cl)c(-c2c(O)cccc2F)[n+]3[O-])[C@@H](C)C1` [SZ-014116AB], in data set [2], the IC50 is 0.0028 µM.

With `C=CC(=O)N1CCN(c2nc(=O)n(-c3c(CC)ncnc3CC)c3c2cc(F)c(-c2c(F)cccc2F)[n+]3[O-])[C@@H](C)C1` [SZ-014119], the IC50 in data set [2] came to 0.691 µM. Moreover, in data set [5], the “Binding rate … (LC-MS POC, %) 3 uM/5 min” value is reported as 20.8% and the “Binding rate … (LC-MS POC, %) 3 uM/30 min” value is 79.2%.

With `C=CC(=O)N1CCN(c2nc(=O)n(-c3c(C(C)C)ncnc3C(C)C)c3c2cc(F)c(-c2ccccc2)[n+]3[O-])[C@@H](C)C1` [SZ-014129], the fraction unbound at 5 h, 1 μM is 0.336 in data set [1], 0.455 in data set [3] and 0.517 in data set [4]. In addition, the IC50 in data set [2] stood at 0.09 µM. For the same molecule, the “molar concentration not bound to plasma proteins, times higher than reference compound SZ-014141” value in the data set with plasma proteins (versus SZ-014141) was “no less than 10 times”.

Turning to `C=CC(=O)N1CCN(c2nc(=O)n(-c3c(C(C)C)cccc3C(C)C)c3c2cc(F)c(-c2ccccc2)[n+]3[O-])[C@@H](C)C1` [SZ-014130], the results for the fraction unbound at 5 h, 1 μM in data set [1], in data set [3] and in data set [4] were 0.039, 0.074 and 0.188, respectively. In addition, the IC50 in data set [2] was 0.139 µM. Besides, in the data set with plasma proteins (versus SZ-014142), the “molar concentration not bound to plasma proteins, times higher than reference compound SZ-014142” value is listed as “no less than 30 times”.

For `C=CC(=O)N1CCN(c2nc(=O)n(-c3c(C)ccnc3CC)c3c2cc(F)c(-c2c(F)cccc2F)[n+]3[O-])[C@@H](C)C1` [SZ-014131], the IC50 in data set [2] was 2.09 µM.

In the case of `C=C(F)C(=O)N1CCN(c2nc(=O)n(-c3c(C(C)C)ncnc3C(C)C)c3nc(-c4c(F)cccc4F)c(F)cc23)[C@@H](C)C1` [SZ-014137, reference compound], the fraction unbound at 5 h, 1 μM in data set [1] worked out at 0.005; in data set [3] it was 0.076; in data set [4] it was 0.114. Moreover, the IC50 in data set [2] was 3.54 µM.

On to `C=CC(=O)N1CCN(c2nc(=O)n(-c3c(C(C)C)ncnc3C(C)C)c3nc(-c4c(F)cccc4F)c(F)cc23)[C@@H](C)C1` [SZ-014138, reference compound], for which the fraction unbound at 5 h, 1 μM in data set [1] was 0.011; in data set [3] it was 0.129; in data set [4] it was 0.203. Moreover, the IC50 in data set [2] was determined as 0.034 µM.

Regarding `C=CC(=O)N1CCN(c2nc(=O)n(-c3c(C(C)C)cccc3C(C)C)c3nc(-c4c(F)cccc4F)c(F)cc23)[C@@H](C)C1` [SZ-014139, reference compound], the fraction unbound at 5 h, 1 μM in data set [1] was 0.007; in data set [3] it was 0.015; in data set [4], 0.022. In addition, the half-inhibitory concentration (IC50) in data set [2] stood at 0.081 µM.

As to `C=CC(=O)N1CCN(c2nc(=O)n(-c3c(C(C)C)ncnc3C(C)C)c3nc(-c4ccccc4)c(F)cc23)[C@@H](C)C1` [SZ-014141, reference compound], the fraction unbound at 5 h, 1 μM in data set [1] stood at 0.008; in data set [3] it was 0.04; in data set [4], 0.127. Further, in data set [2], the IC50 was determined as 0.17 µM.

Regarding `C=CC(=O)N1CCN(c2nc(=O)n(-c3c(C(C)C)cccc3C(C)C)c3nc(-c4ccccc4)c(F)cc23)[C@@H](C)C1` [SZ-014142, reference compound], the fraction unbound at 5 h, 1 μM is 0.047 in data set [1], 0.002 in data set [3] and 0.008 in data set [4]. For the same molecule, the IC50 in data set [2] is 0.296 µM.

(Values after US20230061083A1, “KRAS G12C INHIBITOR COMPOUND AND USE THEREOF” (Evopoint Biosciences Co., Ltd., priority 2019, published 2023).)
